Measured values as given in US10940139B2, “Compounds that interact with the Ras superfamily for the treatment of cancers, inflammatory diseases, rasopathies, and fibrotic disease” (Shy Therapeutics LLC, priority 2017, dated 2021).
Read-outs that look alike come from different tables or passages of the source.

Columns and labels:
KRas Q61H mutant = KRas Q61H mutant (Homo sapiens (Human), UniProt P01116, Q61H); assay: Ras GTP binding domain inhibition assay (labeled GTP); details: 20 μM compound
Summary of the method: (§1)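 Ni-plate capture of His-KRas (3-10 μg/ml, o/n, 4° C); Tris pH 7.5/MgCl2/DTT buffer, 1% DMSO. Cpd 20 μM or titration, 3 h RT. Cy3/Cy5-GTP 45 min RT, wash, fluorescence of bound GTP.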

[1] = target: KRas G12C/Q61H double mutant (Homo sapiens (Human), UniProt P01116, G12C/Q61H); assay: as above; details: 20 μM compound
Summary of the method: as §1

[2] = target: KRas G12D/Q61H double mutant (Homo sapiens (Human), UniProt P01116, G12D/Q61H); assay: as above; details: for IC50: serial dilution, read-out: KRas G12D Q61H (classes E-H, IC50)
Summary of the method: as §1

Rho-A = Rho-A (Homo sapiens (Human), UniProt P61586); assay: Rho inhibition assay (labeled GTP); format: binding; details: read-out: Rho-A % Inh.
Rac-1 = Rac-1 (Homo sapiens (Human), UniProt P63000); assay: Rac inhibition assay (labeled GTP); format: binding; details: read-out: Rac-1 % Inh.
KRas G12D mutant protein = KRas G12D mutant protein (Homo sapiens (Human), UniProt P01116, G12D); assay: Ras GTP binding domain inhibition assay (labeled GTP); details: at 20 μM; read-out: KRas G12D % Inh.
[3] = KRas Q61H, read-out: % Inhibition at 20 μM of K-Ras mutant and wild-type protein, KRas Q61H
[4] = KRas G12C/Q61H double mutant, read-out: % Inhibition at 20 μM of K-Ras mutant and wild-type protein, KRas G12C Q61H
[5] = 20 μM compound, KRas G12D/Q61H double mutant, read-out: % Inhibition at 20 μM of K-Ras mutant and wild-type protein, KRas G12D Q61H
[6] = read-out: % Inhibition at 20 μM KRas Q61H
[7] = read-out: % Inhibition at 20 μM KRas G12C Q61H
[8] = 20 μM compound, read-out: % Inhibition at 20 μM KRas G12D Q61H
[9] = at 20 μM, read-out: KRas G12D Q61H % Inh.

Sequence of Rho-A (P61586 whole entry): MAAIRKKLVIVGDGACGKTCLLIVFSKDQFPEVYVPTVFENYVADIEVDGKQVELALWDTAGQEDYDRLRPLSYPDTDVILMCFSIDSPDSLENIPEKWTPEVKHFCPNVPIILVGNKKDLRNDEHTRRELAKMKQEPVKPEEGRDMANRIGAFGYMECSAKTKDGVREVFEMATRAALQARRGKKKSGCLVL
Sequence of KRas G12D/Q61H double mutant (P01116-2 other isoform, or with tags, fused parts or gaps G12D/Q61H): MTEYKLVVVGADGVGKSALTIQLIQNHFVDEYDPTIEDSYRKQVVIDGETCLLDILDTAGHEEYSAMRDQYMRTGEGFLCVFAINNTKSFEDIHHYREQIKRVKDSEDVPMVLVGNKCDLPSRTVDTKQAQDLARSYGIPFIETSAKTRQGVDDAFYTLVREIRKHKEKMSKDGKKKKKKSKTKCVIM
Sequence of KRas G12D mutant protein (P01116-2 other isoform, or with tags, fused parts or gaps G12D): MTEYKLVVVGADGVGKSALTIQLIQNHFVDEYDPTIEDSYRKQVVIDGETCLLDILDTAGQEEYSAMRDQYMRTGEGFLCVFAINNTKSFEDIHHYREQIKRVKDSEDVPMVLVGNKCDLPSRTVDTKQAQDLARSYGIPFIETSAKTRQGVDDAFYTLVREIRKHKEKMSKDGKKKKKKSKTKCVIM
Sequence of KRas Q61H mutant (P01116-2 other isoform, or with tags, fused parts or gaps Q61H): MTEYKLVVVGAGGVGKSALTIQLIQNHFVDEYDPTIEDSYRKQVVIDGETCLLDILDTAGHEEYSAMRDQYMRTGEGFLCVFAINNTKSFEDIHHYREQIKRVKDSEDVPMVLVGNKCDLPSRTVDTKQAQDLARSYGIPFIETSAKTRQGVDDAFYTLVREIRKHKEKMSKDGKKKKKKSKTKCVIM
Sequence of KRas G12C/Q61H double mutant (P01116-2 other isoform, or with tags, fused parts or gaps G12C/Q61H): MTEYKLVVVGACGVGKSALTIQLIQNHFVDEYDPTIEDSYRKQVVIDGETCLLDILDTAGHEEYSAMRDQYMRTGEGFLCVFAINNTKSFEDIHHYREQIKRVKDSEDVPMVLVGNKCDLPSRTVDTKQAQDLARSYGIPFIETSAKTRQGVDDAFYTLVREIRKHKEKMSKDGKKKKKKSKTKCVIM

Row | inhibition at 20 µM (KRas Q61H mutant; [3]) | inhibition at 20 µM [1, 4] | inhibition at 20 µM [2, 5] | inhibition at 20 µM (KRas Q61H mutant; [6]) | inhibition at 20 µM [1, 7] | inhibition at 20 µM [2, 8] | SMILES | also measured
1 | 1 to 25% | 1 to 25% | 0% |  |  |  | NC(=O)C1CCCN1C(=O)c1cccc(-c2cc3nc(N)nc(O)c3s2)c1 (centres unmarked) [drawing 3544] | 
2 | 0% | 1 to 25% | 0% |  |  |  | Cc1ccc(-c2cc3nc(-c4ccccn4)nc(O)c3s2)cc1 [drawing 3555] | 
3 | 0% | 25 to 50% | 1 to 25% |  |  |  | COc1cnc(CNC(=O)c2sc3c(O)nc(-c4ccccn4)nc3c2C)[nH]c1=O [drawing 3524] | 
4 | 1 to 25% | 1 to 25% | 0% |  |  |  | Cn1cnc(-c2nc(O)c3sc(-c4ccncc4)c(-c4ccccc4)c3n2)c1 [drawing 3549] | 
5 | 51 to 75% | 51 to 75% | 25 to 50% |  |  |  | O=C(c1csc2c(O)nc(-c3ccccn3)nc12)N1CCNC(c2ccc(Cl)cc2)C1 (centres unmarked) [drawing 3525] | 
6 | 0% | 1 to 25% | 0% |  |  |  | Nc1nc(O)c2sc(-c3cccc(C(=O)NCc4cccc(O)n4)c3)cc2n1 [drawing 3546] | 
7 | 0% | 1 to 25% | 1 to 25% |  |  |  | Nc1nc(O)c2sc(-c3cccc(C(=O)NC4CCNC4=O)c3)cc2n1 (centres unmarked) [drawing 3542] | 
8 | 0% | 1 to 25% | 0% |  |  |  | COc1cnc(CNC(=O)c2c(C)sc3c(O)nc(-c4ccccn4)nc23)[nH]c1=O [drawing 3523] | 

The next lines start with the compound.

Row | SMILES | inhibition at 20 µM (KRas Q61H mutant; [3]) | inhibition at 20 µM [1, 4] | inhibition at 20 µM [2, 5] | inhibition at 20 µM (KRas Q61H mutant; [6]) | inhibition at 20 µM [1, 7] | inhibition at 20 µM [2, 8] | also measured
9 | Cc1sc2c(O)nc(-c3ccccn3)nc2c1C(=O)N1CCN(c2ccccc2)CC1 [drawing 3508] | 51 to 75% | 51 to 75% | 25 to 50% |  |  |  | 
10 | O=C(c1csc2c(O)nc(-c3ccccn3)nc12)N1CCOC(Cc2ccccc2)C1 (centres unmarked) [drawing 2771] |  |  |  | 51 to 75% | 51 to 75% | 25 to 50% | 
11 | Oc1nc(-c2ccccn2)nc2c(-c3ccc(OC4CCOC4)cc3)csc12 (centres unmarked) [drawing 2862] |  |  |  | 25 to 50% | 1 to 25% | 25 to 50% | 
12 | Nc1nc(-c2ccccn2)nc2c(-c3ccccc3Cl)csc12 [drawing 2835] |  |  |  | 1 to 25% | 1 to 25% | 1 to 25% | 
13 | Cc1c(Br)sc2c(O)nc(-c3ccccn3)nc12 [drawing 3474] | 51 to 75% | 25 to 50% | 25 to 50% |  |  |  | 
14 | Oc1nc(-c2ccccn2)nc2c(C3CCCCC3)csc12 [drawing 3511] | 51 to 75% | 25 to 50% | 25 to 50% |  |  |  | 
15 | Oc1nc(-c2ccccn2)nc2c(-c3ccc(OC4CCCC4)cc3)csc12 [drawing 2863] |  |  |  | 25 to 50% | 25 to 50% | 25 to 50% | 
16 | COc1cnc(CNC(=O)c2csc3c(O)nc(-c4ccccn4)nc23)[nH]c1=O [drawing 3520] | 0% | 25 to 50% | 1 to 25% |  |  |  | 
17 | O=C(c1csc2c(O)nc(-c3ccccn3)nc12)N1CCN(c2ccc(F)cc2)CC1 [drawing 2754] |  |  |  | 25 to 50% | 25 to 50% | 0% | 
18 | Cc1ccc(OC2CCCC2)c(-c2csc3c(O)nc(-c4ccccn4)nc23)c1 [drawing 2844] |  |  |  | 51 to 75% | 51 to 75% | 51 to 75% | 
19 | COc1ccncc1CCNC(=O)c1csc2nc(-c3ccccn3)nc(N3CCOCC3)c12 [drawing 2780] |  |  |  | 25 to 50% | 1 to 25% | 1 to 25% | 
20 | Oc1nc(-c2ccccn2)nc2c(CC3CCCNC3)csc12 (centres unmarked) [drawing 3488] | 51 to 75% | 51 to 75% | 25 to 50% |  |  |  | 
21 | Cc1cncc(-c2csc3c(O)nc(-c4ccccn4)nc23)c1 [drawing 3467] | 25 to 50% | 25 to 50% | 25 to 50% |  |  |  | 
22 | O=C(c1csc2c(O)nc(-c3ccccn3)nc12)N1CCNC(Cc2cccc(F)c2)C1 (centres unmarked) [drawing 2832] |  |  |  | 51 to 75% | 51 to 75% | 51 to 75% | 
23 | O=C(NCCc1cncs1)c1csc2nc(-c3ccccn3)nc(N3CCOCC3)c12 [drawing 2749] |  |  |  | 25 to 50% | 25 to 50% | 1 to 25% | 
24 | N#Cc1cccc(-c2csc3c(O)nc(-c4ccccn4)nc23)c1 [drawing 3503] | 25 to 50% | 1 to 25% | 1 to 25% |  |  |  | 
25 | COC(=O)c1cc2nc(-c3ccccn3)nc(O)c2s1 [drawing 2907] |  |  |  | 51 to 75% | 51 to 75% | 51 to 75% | IC50 [2]: > 30 µM
26 | Cc1cc2nc(-c3ccccn3)nc(O)c2s1 [drawing 3472] | 51 to 75% | 51 to 75% | 51 to 75% |  |  |  | 
27 | N#Cc1cccc(N2CCN(C(=O)c3csc4c(O)nc(-c5ccccn5)nc34)CC2)c1 [drawing 2755] |  |  |  | 25 to 50% | 25 to 50% | 1 to 25% | 
28 | COc1nc(-c2ccccn2)nc2c(C3CC3)csc12 [drawing 3489] | 0% | 0% | 1 to 25% |  |  |  | 
29 | O=C(c1csc2c(O)nc(-c3ccccn3)nc12)N1CCNC(c2ccc(F)cc2)C1 (centres unmarked) [drawing 2807] |  |  |  | 76 to 100% | 76 to 100% | 1 to 25% | 
30 | COc1cc(C)c(-c2csc3c(O)nc(-c4ccccn4)nc23)cc1C [drawing 2869] |  |  |  | 1 to 25% | 1 to 25% | 25 to 50% | 
31 | O=C(c1csc2c(O)nc(-c3ccccn3)nc12)N1CCN(c2ccc(O)c(Cl)c2)CC1 [drawing 2803] |  |  |  | 51 to 75% | 51 to 75% | 51 to 75% | IC50 [2]: 11 to 30 µM
32 | COc1nc(-c2cn(C)cn2)nc2sc(-c3ccncc3)c(-c3ccccc3)c12 [drawing 3849] |  |  |  |  |  |  | inhibition at 20 µM (Rho-A): 51 to 75%; inhibition at 20 µM (Rac-1): 25 to 50%; inhibition at 20 µM [2, 9]: 25 to 50%; inhibition at 20 µM (KRas G12D mutant protein): 25 to 50%
33 | COc1nc(-c2ccccn2)nc2c(C3CCCC3)csc12 [drawing 3789] |  |  |  |  |  |  | inhibition at 20 µM (Rho-A): 51 to 75%; inhibition at 20 µM (Rac-1): 76 to 100%; inhibition at 20 µM [2, 9]: 51 to 75%; inhibition at 20 µM (KRas G12D mutant protein): 25 to 50%
34 | Nc1cccc(-c2csc3c(O)nc(-c4ccccn4)nc23)n1 [drawing 3832] |  |  |  |  |  |  | inhibition at 20 µM (Rho-A): 76 to 100%; inhibition at 20 µM (Rac-1): 76 to 100%; inhibition at 20 µM [2, 9]: 51 to 75%; inhibition at 20 µM (KRas G12D mutant protein): 51 to 75%
35 | Oc1nc(-c2ccccn2)nc2c(-c3cc(Cl)cc(Cl)c3)csc12 [drawing 3720] |  |  |  |  |  |  | inhibition at 20 µM (Rho-A): 51 to 75%; inhibition at 20 µM (Rac-1): 25 to 50%; inhibition at 20 µM [2, 9]: 25 to 50%; inhibition at 20 µM (KRas G12D mutant protein): 25 to 50%
36 | O=c1[nH]c(-c2ccccn2)nc2c([C@@H]3O[C@H](CO)[C@@H](O)[C@H]3O)csc12 [drawing 3845] |  |  |  |  |  |  | inhibition at 20 µM (Rho-A): 51 to 75%; inhibition at 20 µM (Rac-1): 51 to 75%; inhibition at 20 µM [2, 9]: 25 to 50%; inhibition at 20 µM (KRas G12D mutant protein): 25 to 50%
37 | Oc1nc(-c2ccccn2)nc2c(CC3CCNC3)csc12 (centres unmarked) [drawing 3844] |  |  |  |  |  |  | inhibition at 20 µM (Rho-A): 76 to 100%; inhibition at 20 µM (Rac-1): 76 to 100%; inhibition at 20 µM [2, 9]: 51 to 75%; inhibition at 20 µM (KRas G12D mutant protein): 51 to 75%
